By EC50 is commonly meant the concentration needed to bring the measured effect to its halfway point. A high value points to weaker potency.

The results in this text go back to patent US20200131144A1, “AMINE OR (THIO)AMIDE CONTAINING LXR MODULATORS” (Phenex-FXR GmbH, priority 2017, published 2020).

Where only a bound is given, the exact number is not on record here.

Data set [1] in a line: Pharmacokinetics in mice after single oral dosing, blood and liver exposure by LC-MS. The format is in vivo, mice (C57/bl6/J). Conditions: for Kp at 4 h / Kp at 12 h: male, C57/bl6/J, mouse, liver/blood, read-out: liver/blood ratio; for Kp at 4 h / blood/plasma exposure / liver exposure / Kp at 12 h: single oral dose 20 mg/kg. The procedure:
The pharmacokinetics of the compounds was assessed in mice after single dosing and oral administrations. Blood and liver exposure was measured via LC-MS.
The study design was as follows:
Animals: C57/bl6/J (Janvier) males Diet: standard rodent chow Dose: 20 mg/kg Animal handling: animals were withdrawn from food at least 12 h before administration Design: single dose oral administration, n=3 animals per group Sacrifice: at stated time point (4, 12 or 24 h) after administration Bioanalytics: LC-MS of liver and blood samples

In another data set the target is T1, LXRβ full length (FL) (Homo sapiens, UniProt P55055, INS174Q).
T1 construct: the full length (FL) proteins of LXRα (amino acids 1-447); NP005684; NP009052; expressed in transfected cells; host or cells: HEK293
T1 sequence (P55055 with tags, fused parts or gaps INS174Q): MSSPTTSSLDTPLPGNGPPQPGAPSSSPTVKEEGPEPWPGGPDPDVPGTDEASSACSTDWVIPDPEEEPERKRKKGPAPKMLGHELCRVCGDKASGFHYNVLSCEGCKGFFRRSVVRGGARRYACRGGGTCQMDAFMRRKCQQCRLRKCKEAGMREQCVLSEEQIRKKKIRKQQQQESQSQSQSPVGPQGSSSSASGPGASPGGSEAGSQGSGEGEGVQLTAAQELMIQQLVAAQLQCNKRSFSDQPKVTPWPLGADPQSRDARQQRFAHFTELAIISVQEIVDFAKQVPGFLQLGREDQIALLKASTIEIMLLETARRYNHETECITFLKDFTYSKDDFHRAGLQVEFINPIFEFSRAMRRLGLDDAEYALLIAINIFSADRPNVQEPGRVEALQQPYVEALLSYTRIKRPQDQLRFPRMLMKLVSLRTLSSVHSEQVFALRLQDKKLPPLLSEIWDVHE
The experiment in a line: LXR Gal4 reporter transient transfection assay, mammalian two-hybrid, FL-M2H Gal4β. Type of data set: cell-based. Conditions: HEK293 cells; inverse agonist unless *. The procedure, abridged: (§1)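 Mammalian two-hybrid read-out: interaction of LXRα or LXRβ (full length or ligand-binding domain, NFkB activation-domain fusions) with GAL4-fused SRC1 or NCoR domains drives GAL4-responsive firefly luciferase in HEK293 cells, normalised by Renilla cotransfection. Compounds given 4 h after transfection, ≤0.2% vehicle, cells lysed after 16 h.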

A further data set has as its target T2, LXRα full length (FL) (Homo sapiens, UniProt Q13133).
T2 construct: the full length (FL) proteins of LXRα (amino acids 1-447); NP005684; expressed in transfected cells; host or cells: HEK293
T2 sequence (Q13133 1-447): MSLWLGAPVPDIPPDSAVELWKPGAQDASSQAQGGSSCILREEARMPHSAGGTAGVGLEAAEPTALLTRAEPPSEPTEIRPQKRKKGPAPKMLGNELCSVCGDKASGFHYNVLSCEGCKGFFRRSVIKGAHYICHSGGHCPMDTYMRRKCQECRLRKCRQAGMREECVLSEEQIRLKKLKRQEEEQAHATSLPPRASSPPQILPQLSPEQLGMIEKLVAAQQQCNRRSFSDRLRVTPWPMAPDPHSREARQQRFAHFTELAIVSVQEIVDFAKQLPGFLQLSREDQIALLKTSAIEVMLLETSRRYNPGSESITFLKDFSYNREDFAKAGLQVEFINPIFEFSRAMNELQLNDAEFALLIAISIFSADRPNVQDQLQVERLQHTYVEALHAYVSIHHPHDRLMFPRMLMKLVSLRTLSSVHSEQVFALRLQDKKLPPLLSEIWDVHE
The experiment in a line: LXR Gal4 reporter transient transfection assay, mammalian two-hybrid, FL-M2H Gal4α. The format is cell-based. Conditions: HEK293 cells; inverse agonist unless *. A digest of the protocol: as §1

Data set [2] has as its target T3, GST-LXRβ ligand-binding domain (Homo sapiens, UniProt P55055, INS174Q).
T3 construct: amino acids 156-461; NP009052; made in house; host or cells: E. coli
T3 sequence (P55055 with tags, fused parts or gaps INS174Q limits assumed): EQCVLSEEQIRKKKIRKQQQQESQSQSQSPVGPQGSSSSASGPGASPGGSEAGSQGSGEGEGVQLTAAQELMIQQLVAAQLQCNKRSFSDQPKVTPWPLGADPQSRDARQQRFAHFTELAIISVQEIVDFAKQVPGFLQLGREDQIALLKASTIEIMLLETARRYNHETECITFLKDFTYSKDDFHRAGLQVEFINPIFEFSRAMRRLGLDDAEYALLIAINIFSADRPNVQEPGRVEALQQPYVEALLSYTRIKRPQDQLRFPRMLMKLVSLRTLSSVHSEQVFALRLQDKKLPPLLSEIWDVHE
Kind of data set: TR-FRETβ activity assay (NCoA3 coactivator peptide recruitment). To be noted: 1 μM 24(S)-25-epoxycholesterol as prestimulating agonist; inverse agonist unless *. Type of data set: biochemical. A digest of the protocol: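 Coactivator recruitment read as TR-FRET (ex 340, em 615 and 665 nm) after 1 h equilibration at 4° C, in triplicate. Mix held 76 nM GST-tagged LXRβ LBD (aa 156-461, E. coli), 400 nM biotin-NCoA3 peptide, Tb-cryptate anti-GST, streptavidin-XL665, 240 mM KCl buffer.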

Consider `Cc1ccc2ccccc2c1C(=O)N(Cc1ccc(-c2cccc(C(C)(C)C(=O)NO)c2)cc1)Cc1ccc(C(F)(F)F)o1` [5/3], for which, in data set [1] (time point 4 h), the Kp at 4 h came to 7.6, the blood/plasma exposure is 0.08 µM and the liver exposure was determined as 0.61 µM. The EC50 at LXRβ full length (FL) is less than 0.1 µM. Besides, the EC50 at LXRα full length (FL) was less than 0.1 µM. The same compound came in with an EC50 in data set [2] of less than 0.1 µM.
With `N#Cc1ccc2ccccc2c1CN(Cc1ccc(-c2cccc(S(=O)(=O)CC(=O)O)c2)cc1)Cc1ccc(C(F)(F)F)o1` [7/7], the Kp at 4 h in data set [1] (time point 4 h) came to 44. In data set [1] (time point 4 h), this compound registered a blood/plasma exposure of 0.01 µM. Also, in data set [1] (time point 4 h), the liver exposure came to 0.42 µM. Further, the EC50 was in the range of 0.1 to 1 µM at LXRβ full length (FL), 1 to 10 µM at LXRα full length (FL) and 1 to 10 µM in data set [2].
Take `Cc1cc(C)c(CN(Cc2ccc(-c3cncc(S(=O)(=O)CC(=O)O)c3)cc2)Cc2ccc(C(F)(F)F)o2)c(C)c1` [12/2]: in data set [1] (time point 12 h), the Kp at 12 h came to 2.4, the blood/plasma exposure came out at 0.34 µM and the liver exposure worked out at 0.83 µM.
Take `Cc1cc(C)c(CN(Cc2ccc(-c3cc(F)c(CO)c(S(=O)(=O)CC(=O)O)c3)cc2)Cc2ccc(C(F)(F)F)o2)c(C)c1` [20/1]: in data set [1] (time point 4 h), the Kp at 4 h was found to be 64, the blood/plasma exposure was 1.0 µM and the liver exposure amounted to 64 µM. This compound also gave an EC50 on LXRβ full length (FL) of 0.1 to 1 µM. This compound also registered an EC50 on LXRα full length (FL) of 1 to 10 µM. Also, the EC50 in data set [2] fell in the range of 0.1 to 1 µM.
As to `Cc1ccc2ccccc2c1CN(Cc1ccc(C(F)(F)F)o1)Cc1ccc(-c2cncc(S(=O)(=O)CC(=O)O)c2)cc1Cl` [26/8], the Kp at 4 h in data set [1] (time point 4 h) was 178. In data set [1] (time point 4 h), the blood/plasma exposure amounted to 0.01 µM. For the same compound, in data set [1] (time point 4 h), the liver exposure stood at 1.41 µM. The EC50 lay in the range of 0.1 to 1 µM at LXRβ full length (FL), 0.1 to 1 µM on LXRα full length (FL) and 1 to 10 µM in data set [2].
Consider `Cc1ccc2c(F)cccc2c1C(=O)N(Cc1ccc(-c2cccc(C(C)(C)C(=O)O)c2)cc1)Cc1ccc(C(F)(F)F)o1` [27/12], for which the Kp at 12 h in data set [1] (time point 12 h) was found to be 11. Also, the blood/plasma exposure in data set [1] (time point 12 h) was 3.99 µM. In data set [1] (time point 12 h), this compound displayed a liver exposure of 43.7 µM. For the same compound, the EC50 (at LXRβ full length (FL); at LXRα full length (FL); in data set [2]) was less than 0.1 µM in each case.
With `Cc1c(CN(Cc2ccc(-c3cccc(C(C)(C)C(=O)O)c3)cc2)Cc2ccc(C(F)(F)F)o2)c2ccccc2n(C)c1=O` [27/23], the Kp at 4 h in data set [1] (time point 4 h) came out at 19. Besides, in data set [1] (time point 4 h), the blood/plasma exposure was determined as 0.15 µM. The compound further had a liver exposure in data set [1] (time point 4 h) of 2.9 µM. For the same compound, the EC50 at LXRβ full length (FL) is less than 0.1 µM; at LXRα full length (FL), less than 0.1 µM; in data set [2], 0.1 to 1 µM.
`COC(=O)CS(=O)(=O)c1cccc(-c2ccc(CN(Cc3ccc(C(F)(F)F)o3)C(C)c3cccc4ccccc34)cc2)c1` (stereo not shown) [Example 6, Methyl 2-((4′-(((1-(naphthalen-1-yl)ethyl)((5-(trifluoromethyl)furan-2-yl)methyl)amino)methyl)-[1,1′-biphenyl]-3-yl)sulfonyl)acetate]: in data set [1] (time point 4 h), the Kp at 4 h was 45, the blood/plasma exposure amounted to 0.20 µM and the liver exposure worked out at 9.08 µM.
`Cc1ccc2ccccc2c1CN(Cc1ccc(-c2cccc(S(=O)(=O)CC(=O)O)c2)cc1)Cc1ccc(C(F)(F)F)o1` [Example 7/1]: in data set [1] (time point 4 h), the Kp at 4 h is 86, the blood/plasma exposure was found to be 0.21 µM and the liver exposure was 18 µM. This compound also had a concentration for a half-maximal effect (EC50) at LXRβ full length (FL) of less than 0.1 µM. Moreover, on LXRα full length (FL), the EC50 was 0.1 to 1 µM. Further, the EC50 in data set [2] lay within 1 to 10 µM.
On to `Cc1cc(C)c(CN(Cc2ccc(-c3cccc(C(C)(C)C(=O)O)c3)cc2)Cc2ccc(C(F)(F)F)o2)c(C)c1` [Example 10], for which, in data set [1] (time point 12 h), the Kp at 12 h turned out to be 2.7, the blood/plasma exposure worked out at 0.57 µM and the liver exposure was found to be 1.5 µM. Also, at LXRβ full length (FL), the concentration giving a half-maximal response (EC50) is 0.1 to 1 µM. At LXRα full length (FL), the EC50 lay in the range of 0.1 to 1 µM. Besides, the EC50 in data set [2] was less than 0.1 µM.
For the compound `Cc1ccc2ccccc2c1C(=O)N(Cc1ccc(-c2cccc(C(C)(C)c3noc(=O)[nH]3)c2)cc1)Cc1ccc(C(F)(F)F)o1` [Example 29, 2-Methyl-N-((3′-(2-(5-oxo-4,5-dihydro-1,2,4-oxadiazol-3-yl)propan-2-yl)-[1,1′-biphenyl]-4-yl)methyl)-N-((5-(trifluoromethyl)furan-2-yl)methy)-1-naphthamide], the EC50 is less than 0.1 µM on LXRβ full length (FL), less than 0.1 µM at LXRα full length (FL) and 0.1 to 1 µM in data set [2].
With `Cc1ccc2ccccc2c1C(=O)N(Cc1ccc(-c2cccc(S(=O)(=O)Cc3nnn[nH]3)c2)cc1)Cc1ccc(C(F)(F)F)o1` [Example 30, N-((3′-(((1H-Tetrazol-5-yl)methyl)sulfonyl)-1,1′-biphenyl-4-yl)methyl)-2-methyl-N-((5-(trifluoromethyl)furan-2-yl)methyl)-1-naphthamide], the EC50 (at LXRβ full length (FL); at LXRα full length (FL); in data set [2]) was 0.1 to 1 µM throughout.
As for `CCOC(=O)OC(OC(=O)C(C)(C)c1cccc(-c2ccc(CN(Cc3ccc(C(F)(F)F)o3)C(=O)c3c(C)ccc4ccccc34)cc2)c1)C(C)C` (stereo not shown) [Example 31, 1-((Ethoxycarbonyl)oxy)-2-methylpropyl 2-methyl-2-(4′-((2-methyl-N-((5-(trifluoromethyl)furan-2-yl)methyl)-1-naphthamido)methyl)-[1,1′-biphenyl]-3-yl)propanoate], the EC50 on LXRβ full length (FL) is less than 0.1 µM; on LXRα full length (FL) it was less than 0.1 µM; in data set [2], 1 to 10 µM.
In the case of `CNc1nc(-c2cccc(C(C)(C)C(=O)O)c2)ccc1CN(Cc1ccc(C(F)(F)F)o1)C(=O)c1c(C)ccc2ccccc12` [Example 32, 2-Methyl-2-(3-(5-((2-methyl-N-((5-(trifluoromethyl)furan-2-yl)methyl)-1-naphthamido)methyl)-6-(methylamino)pyridin-2-yl)phenyl)propanoic acid], the figures for the EC50 (on LXRβ full length (FL); on LXRα full length (FL); in data set [2]) were 0.1 to 1 µM, 0.1 to 1 µM and greater than 10 µM, respectively.
As to `Cc1nc2cccnc2c(C(=O)N(Cc2ccc(-c3cccc(C(C)(C)C(=O)O)c3)cc2)Cc2ccc(C#N)o2)c1C` [Example 33/1], the EC50 is less than 0.1 µM on LXRβ full length (FL), less than 0.1 µM at LXRα full length (FL) and 0.1 to 1 µM in data set [2].
With `Cc1nc2ccc(=O)[nH]c2c(C(=O)N(Cc2ccc(-c3cccc(C(C)(C)C(=O)O)c3)cc2)Cc2ccc(C(F)(F)F)o2)c1C` [Example 36, 2-(4′-((2,3-Dimethyl-6-oxo-N-((5-(trifluoromethyl)furan-2-yl)methyl)-5,6-dihydro-1,5-naphthyridine-4-carboxamido)methyl)-[1,1′-biphenyl]-3-yl)-2-methylpropanoic acid], the EC50 (on LXRβ full length (FL); on LXRα full length (FL); in data set [2]) was 1 to 10 µM in each case.
Turning to `CCOC(=O)c1ccc(CN(Cc2ccc(-c3cccc(S(C)(=O)=O)c3)cc2)S(=O)(=O)c2c(C)cc(C)cc2C)o1` [SR9238, reference compound], in data set [1] (single dose oral administration, 20 mg/kg), the oral bioavailability entry is “not orally bioavailable and hepatoselective”.
